Assay results taken from patent US9354225B2 (priority 2009, dated 2016).
Read-outs that look alike come from different tables or passages of the source.

Tested on: PrPsc signal in buffy coat (scrapie blood leukocytes)
Assay type: cell-based, sheep
Settings: for PrPsc signal from the buffy coat (OD): additive 5 mM final in whole blood at collection, stored 24 h at 4° C. or room temperature; for preservation of the PrPsc harbored in the buffy coat of blood: scrapie sheep of both ARQ/ARQ and VRQ/VRQ genotypes, additive in blood, stored for at least 24 h
[1] = pre-clinical scrapie sheep #1 (ARQ/ARQ), FIG. 1
[2] = pre-clinical scrapie sheep #2 (ARQ/ARQ), FIG. 2

| Compound | PrPsc signal from the buffy coat (OD) [1] | PrPsc signal from the buffy coat (OD) [2] | preservation of the PrPsc harbored in the buffy coat of blood | detection signal in buffy coat fractions of blood samples (scrapie animals, samples processed 24 hours post-collection) | percentage loss of PrPsc signal relative to sample processed immediately |
| --- | --- | --- | --- | --- | --- |
| O=C(O)CN(CCOCCOCCN(CC(=O)O)CC(=O)O)CC(=O)O [EGTA, ethylene glycol tetraacetic acid] | preserve the PrPsc signal | preserve the PrPsc signal | allow for the preservation of the PrPsc |  |  |
| N[C@@H](CCC(=O)N[C@@H](CS)C(=O)NCC(=O)O)C(=O)O [L-glutathione (reduced)] | preserve the PrPsc signal | preserve the PrPsc signal | allow for the preservation of the PrPsc | can preserve the detection signal |  |
| oxidized L-glutathione |  |  |  |  | lack of effect |
